Data as given in US20030092004A1 (priority 2001, published 2003).
“Also recorded” adds a separate entry of the source. Like-named read-outs stand apart in the source and are kept apart here.

Assays:
NR1/NR3B receptors = NR1/NR3B receptors (Rattus norvegicus, UniProt P35439+Q8VHN2); test: Two-electrode voltage-clamp recording of whole-cell currents in Xenopus oocytes injected with NR1 and NR3B cRNA; format: cell-based; details: for effect on glycine-evoked NR1/NR3B currents on co-application: doses maximally effective at classical NMDARs
Method: Currents were recorded in 1.5 mM Ba^2+ Ringers' solution from oocytes injected with 2 ng of NR1 cRNA and 12 ng of NR3B cRNA.
NR3B cRNA for oocyte expression was produced as follows. The full-length NR3B cDNA was constructed in the pCMV6-XL4 vector (OriGene Technologies, Inc., Rockville, Md.), which contains a T7 promoter upstream of the cDNA insert. […] The truncated cRNA could potentially encode a dominant negative form of NR3B. Therefore, a new vector was constructed to facilitate production of exclusively full-length NR3B cRNA. Construction of this vector proceeded as follows. NR1 cDNA was excised from the pGEM-HE/NR1 vector (a gift from S. F. Heinemann) by digestion with EcoRI and the two ends of the truncated pGEM-HE vector were re-ligated. The truncated pGEM-HE vector retained the 5′ and 3′ UTRs of the X. laevis β-globin gene for high level protein expression in frog oocytes. The SfoI-KpnI fragment of truncated pGEM-HE, which contains the T7 promoter, was replaced with the PvuII-KpnI fragment of pBluescript II KS, which contains the T3 promoter, to generate pJC32. The abbreviated multiple cloning site of pJC32 was then replaced with the multiple cloning site from pcDNA3.1(+) (Invitrogen, Carlsbad, Calif.) by ligating the 102 bp PmeI fragment of pcDNA3.1(+) into the 3 kb SmaI-EcoRV fragment of pJC32 to generate pJC34. Oligos encoding restriction sites for AscI, PacI, and PmeI (ctagc[…]g (SEQ ID NO:52) and ctagc[…]g (SEQ ID NO:53)) were annealed and ligated into the NheI site of pJC34. The resulting vector, pJC39, contains three rare restriction sites downstream of the multiple cloning site to facilitate linearization prior to in vitro transcription using T3 RNA polymerase.
The full-length NR3B (B4 form) cDNA was then excised from pCMV6-XL4 by digestion with EcoRI and XbaI, and the 3.2 kb fragment was ligated into EcoRI/XbaI-digested pJC39. The resulting vector, pJC42, was linearized with PmeI, and in vitro transcription was performed using the mMessage mMachine T3 kit (Ambion, Inc., Austin, Tex.) according to the manufacturer's instructions.
Micropipettes were filled with 3M KCl.

NR1/NR3A receptors = NR1/NR3A receptors (Rattus norvegicus, UniProt P35439+Q9R1M7); test: Two-electrode voltage recording of glycine-evoked currents in oocytes injected with NR1 and NR3A subunits
Method: Microinjection of oocytes and electrophysiological recordings were performed as follows. Physiological and pharmacological properties of NMDA receptor subunits were characterized in the X. laevis oocyte expression system. […] X. laevis oocytes were harvested and defolliculated by digestion with collagenase (2 mg/ml) for 2 hrs. Twenty to 40 ng of cRNA were injected into each oocyte using glass pipettes with a tip size of 20-40 μm in diameter. Electrophysiological recordings were performed from whole oocytes 2-7 days after injection using a dual-electrode voltage-clamp amplifier (Model OC-725A, Warner Instrument, Hamden, Conn.). Micropipettes were filled with 3M KCl. The bath solution contained 115 mM NaCl, 2.5 mM KCl, 1.5 mM BaCl2, and 10 mM Hepes at pH 7.4. Drugs were applied to oocytes via a rapid perfusion system. Data were collected at 2.2 to 11.1 Hz at room temperature using the MacLab/4e A/D converter (AD Instruments, Mountain View, Calif.). Data analysis was performed using the programs Chart (AD Instruments, Mountain View, Calif.) and Microsoft Excel.

NR1/NR2A receptors = NR1/NR2A receptors (Rattus norvegicus, UniProt P35439+Q00959); test: Two-electrode voltage-clamp recording of NMDA plus glycine-evoked currents in Xenopus oocytes expressing NR1/NR2A; format: cell-based; details: for effect on NR1/NR2A currents: 100 μM NMDA plus 10 μM glycine
Method: Microinjection of oocytes and electrophysiological recordings were performed as follows. Physiological and pharmacological properties of NMDA receptor subunits were characterized in the X. laevis oocyte expression system. Full-length cDNAs encoding NMDA receptor subunits were linearized and used as templates for synthesis of cRNA by in vitro transcription using T3 or T7 RNA polymerase (Ambion, Inc., Austin, Tex.). The DNA template was removed by DNase I digestion, and the RNA was purified by phenol/chloroform extraction and ethanol precipitation. The RNA was resuspended in water at 1 μg/μl and stored in −80° C. freezer until use. X. laevis oocytes were harvested and defolliculated by digestion with collagenase (2 mg/ml) for 2 hrs. Twenty to 40 ng of cRNA were injected into each oocyte using glass pipettes with a tip size of 20-40 μm in diameter. […] Micropipettes were filled with 3M KCl. […] Drugs were applied to oocytes via a rapid perfusion system. Data were collected at 2.2 to 11.1 Hz at room temperature using the MacLab/4e A/D converter (AD Instruments, Mountain View, Calif.). Data analysis was performed using the programs Chart (AD Instruments, Mountain View, Calif.) and Microsoft Excel.

[1] = concentration of compound not given or dose-dependent
[2] = no glutamate/NMDA, 1.5 mM Ba2+ Ringers' solution

Chain of NR1/NR2A receptors (Q00959 20-1464 limits assumed, other chains not shown): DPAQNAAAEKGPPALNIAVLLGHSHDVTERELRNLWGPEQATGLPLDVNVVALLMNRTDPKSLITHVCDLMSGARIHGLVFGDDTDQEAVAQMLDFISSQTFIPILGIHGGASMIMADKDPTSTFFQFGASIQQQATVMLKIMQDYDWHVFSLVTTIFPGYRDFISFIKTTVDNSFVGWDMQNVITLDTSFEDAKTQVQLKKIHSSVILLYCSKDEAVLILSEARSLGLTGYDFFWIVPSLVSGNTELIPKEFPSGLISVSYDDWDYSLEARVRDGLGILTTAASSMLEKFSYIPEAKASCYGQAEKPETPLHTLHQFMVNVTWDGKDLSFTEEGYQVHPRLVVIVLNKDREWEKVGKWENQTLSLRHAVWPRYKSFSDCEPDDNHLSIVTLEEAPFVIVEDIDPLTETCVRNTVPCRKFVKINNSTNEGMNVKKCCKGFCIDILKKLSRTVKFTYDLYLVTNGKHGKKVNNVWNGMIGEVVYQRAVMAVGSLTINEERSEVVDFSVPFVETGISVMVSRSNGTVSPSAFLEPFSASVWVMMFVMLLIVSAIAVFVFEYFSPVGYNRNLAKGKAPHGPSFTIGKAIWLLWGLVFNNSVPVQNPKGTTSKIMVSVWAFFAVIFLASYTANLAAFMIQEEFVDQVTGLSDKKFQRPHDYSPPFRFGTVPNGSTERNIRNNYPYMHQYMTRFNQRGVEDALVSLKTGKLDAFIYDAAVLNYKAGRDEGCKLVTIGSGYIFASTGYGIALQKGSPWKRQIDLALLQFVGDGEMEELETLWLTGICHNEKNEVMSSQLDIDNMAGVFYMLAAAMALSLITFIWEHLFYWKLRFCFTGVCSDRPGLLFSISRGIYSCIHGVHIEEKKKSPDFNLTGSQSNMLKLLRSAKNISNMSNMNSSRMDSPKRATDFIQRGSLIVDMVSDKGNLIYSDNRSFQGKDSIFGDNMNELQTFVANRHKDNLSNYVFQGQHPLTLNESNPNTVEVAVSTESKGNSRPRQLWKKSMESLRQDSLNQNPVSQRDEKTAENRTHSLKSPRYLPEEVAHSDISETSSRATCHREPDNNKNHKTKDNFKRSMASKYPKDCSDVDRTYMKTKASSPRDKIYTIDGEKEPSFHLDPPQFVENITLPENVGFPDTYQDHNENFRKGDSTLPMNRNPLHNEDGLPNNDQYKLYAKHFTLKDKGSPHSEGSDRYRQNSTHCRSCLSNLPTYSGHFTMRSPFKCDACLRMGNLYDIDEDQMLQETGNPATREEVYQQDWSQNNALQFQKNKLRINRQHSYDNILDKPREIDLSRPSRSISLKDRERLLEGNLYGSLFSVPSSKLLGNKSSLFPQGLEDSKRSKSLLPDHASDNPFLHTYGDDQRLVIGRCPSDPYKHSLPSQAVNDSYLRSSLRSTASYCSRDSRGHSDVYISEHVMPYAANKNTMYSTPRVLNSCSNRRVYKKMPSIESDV
Chain of NR1/NR3A receptors (Q9R1M7 24-1135, other chains not shown): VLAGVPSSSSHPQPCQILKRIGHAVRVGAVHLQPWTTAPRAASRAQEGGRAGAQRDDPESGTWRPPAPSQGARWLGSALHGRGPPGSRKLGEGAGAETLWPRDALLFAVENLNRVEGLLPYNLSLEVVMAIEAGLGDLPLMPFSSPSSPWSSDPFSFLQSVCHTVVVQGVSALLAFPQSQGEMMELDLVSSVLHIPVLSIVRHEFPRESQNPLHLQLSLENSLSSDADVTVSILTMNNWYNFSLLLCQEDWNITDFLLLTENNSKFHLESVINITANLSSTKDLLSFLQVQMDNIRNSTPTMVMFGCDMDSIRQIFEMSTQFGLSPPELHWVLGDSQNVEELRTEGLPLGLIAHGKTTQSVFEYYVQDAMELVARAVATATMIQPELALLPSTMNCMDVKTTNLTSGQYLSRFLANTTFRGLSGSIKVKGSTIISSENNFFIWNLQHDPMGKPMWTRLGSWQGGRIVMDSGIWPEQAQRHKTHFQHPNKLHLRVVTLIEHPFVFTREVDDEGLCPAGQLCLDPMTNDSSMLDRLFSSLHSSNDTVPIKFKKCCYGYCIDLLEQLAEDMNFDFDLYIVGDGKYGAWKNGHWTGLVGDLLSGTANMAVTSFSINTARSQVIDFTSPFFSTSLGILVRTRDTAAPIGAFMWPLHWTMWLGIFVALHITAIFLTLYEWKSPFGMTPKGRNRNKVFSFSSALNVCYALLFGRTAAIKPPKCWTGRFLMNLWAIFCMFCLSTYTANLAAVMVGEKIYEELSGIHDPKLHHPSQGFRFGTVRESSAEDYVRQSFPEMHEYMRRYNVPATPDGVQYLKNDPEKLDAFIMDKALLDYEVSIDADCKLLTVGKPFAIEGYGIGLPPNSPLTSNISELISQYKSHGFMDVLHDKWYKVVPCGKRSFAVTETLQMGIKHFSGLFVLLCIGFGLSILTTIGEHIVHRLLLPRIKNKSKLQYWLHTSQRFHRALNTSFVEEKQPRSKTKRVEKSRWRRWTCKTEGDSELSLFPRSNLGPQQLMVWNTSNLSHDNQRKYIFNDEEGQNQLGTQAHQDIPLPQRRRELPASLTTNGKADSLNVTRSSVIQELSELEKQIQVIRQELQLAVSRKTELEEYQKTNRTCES
Chain of NR1/NR3B receptors (Q8VHN2 25-1002, other chains not shown): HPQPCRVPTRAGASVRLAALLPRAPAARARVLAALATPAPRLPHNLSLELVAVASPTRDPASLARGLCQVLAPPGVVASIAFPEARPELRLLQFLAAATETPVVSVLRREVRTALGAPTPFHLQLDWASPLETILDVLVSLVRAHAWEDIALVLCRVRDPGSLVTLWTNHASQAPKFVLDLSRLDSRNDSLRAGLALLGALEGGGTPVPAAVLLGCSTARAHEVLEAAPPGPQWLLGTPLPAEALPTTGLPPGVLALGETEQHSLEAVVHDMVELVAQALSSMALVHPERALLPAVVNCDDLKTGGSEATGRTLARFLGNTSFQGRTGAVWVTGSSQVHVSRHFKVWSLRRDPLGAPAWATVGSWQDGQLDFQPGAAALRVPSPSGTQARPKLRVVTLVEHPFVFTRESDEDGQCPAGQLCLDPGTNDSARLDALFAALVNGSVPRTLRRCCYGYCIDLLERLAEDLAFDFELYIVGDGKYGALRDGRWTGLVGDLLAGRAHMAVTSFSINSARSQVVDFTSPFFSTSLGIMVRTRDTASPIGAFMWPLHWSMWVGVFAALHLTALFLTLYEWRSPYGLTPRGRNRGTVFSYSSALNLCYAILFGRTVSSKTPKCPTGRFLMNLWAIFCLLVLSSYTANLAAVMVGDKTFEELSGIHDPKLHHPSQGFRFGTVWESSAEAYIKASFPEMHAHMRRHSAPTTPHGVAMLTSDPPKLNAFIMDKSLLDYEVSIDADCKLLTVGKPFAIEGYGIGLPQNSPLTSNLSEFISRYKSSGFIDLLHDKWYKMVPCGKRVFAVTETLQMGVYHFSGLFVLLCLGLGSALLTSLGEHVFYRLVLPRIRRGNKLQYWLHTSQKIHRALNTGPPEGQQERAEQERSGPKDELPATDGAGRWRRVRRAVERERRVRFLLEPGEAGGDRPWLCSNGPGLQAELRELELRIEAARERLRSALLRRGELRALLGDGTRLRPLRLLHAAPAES

## O=C(O)c1cc(=O)c2c(Cl)cc(Cl)cc2[nH]1 [5,7-dichlorokynurenic acid]
NR1/NR3B receptors; [1]
  effect on glycine-evoked NR1/NR3B currents: completely inhibits
NR1/NR3B receptors; concentration of compound not given or dose-dependent, listed as 5, 7-di-Cl-Kynurenate
  effect on glycine-evoked NR1/NR3B currents: blocks
NR1/NR3B receptors; concentration of compound not given or dose-dependent, listed as 5,7-dichlorokynurenate
  effect on glycine-evoked NR1/NR3B currents: completely abolished
NR1/NR3A receptors; listed as 5, 7-di-Cl-Kynurenate
  effect on glycine-evoked NR1/NR3A currents: effectively blocked
NR1/NR3A receptors; listed as 5,7-dichlorokynurenate
  effect on glycine-evoked NR1/NR3A currents: blocked

## NC1(C(=O)O)CC1 [ACPC]
NR1/NR3B receptors; 10 μM glycine
  effect on glycine-evoked NR1/NR3B currents on co-application: produces relative inhibition
NR1/NR3B receptors; [1]
  effect on glycine-evoked NR1/NR3B currents: inhibited
NR1/NR3B receptors; [2]
  NR1/NR3B current evoked by compound applied alone: does not evoke detectable NR1/NR3B currents
NR1/NR2A receptors; co-applied with 100 μM NMDA
  NR1/NR2A currents on co-application with NMDA (co-agonist activity): evokes NR1/NR2A currents

## NC(CCCP(=O)(O)O)C(=O)O (stereo not shown) [APV, 2-amino-5-phosphonovalerate]
NR1/NR3B receptors
  effect on glycine-evoked NR1/NR3B currents: little or no effect; also recorded: has little effect
  effect on glycine-induced NR1/NR3B current: actually potentiated glycine-evoked current somewhat; also recorded: did not block the glycine-induced current, and actually potentiated the current
NR1/NR2A receptors; compound 10 μM
  effect on NR1/NR2A currents: blocks
NR1/NR3A receptors
  effect on glycine-evoked NR1/NR3A currents: blocked the current only slightly

## N[C@H](CO)C(=O)O [D-serine]
NR1/NR3B receptors; 10 μM glycine
  effect on glycine-evoked NR1/NR3B currents on co-application: produces relative inhibition
NR1/NR3B receptors; [1]
  effect on glycine-evoked NR1/NR3B currents: dose-dependently inhibits currents; also recorded: inhibited; also recorded: inhibits glycine-evoked responses in a dose-dependent fashion
NR1/NR3B receptors; [2]
  NR1/NR3B current evoked by compound applied alone: evokes small NR1/NR3B currents alone
NR1/NR3A receptors
  effect on glycine-evoked NR1/NR3A currents: effectively blocked

## N[C@@H](CS)C(=O)O [L-cysteine]
NR1/NR3B receptors; compound 50 μM, 5 μM glycine
  effect on NR1/NR3B currents evoked by glycine: have little effect or only slightly potentiate the current
NR1/NR3B receptors; [1]
  effect on glycine-evoked NR1/NR3B currents: slightly potentiated

## C[C@]12N[C@H](Cc3ccccc31)c1ccccc12 [MK801]
NR1/NR3B receptors
  effect on glycine-evoked NR1/NR3B currents: does not block and in fact appears to slightly potentiate
  sensitivity of NR1/NR3B receptors to channel blocker compared to NR1/NR2A (NR2-containing) receptors: drastically less sensitive
NR1/NR2A receptors; compound 10 μM
  effect on NR1/NR2A currents: complete blockade
NR1/NR3A receptors
  effect on glycine-evoked NR1/NR3A currents: not only failed to block glycine-evoked currents of NR1/NR3A receptors, but actually potentiated these currents; also recorded: potentiates

## CC12CC3CC(C)(C1)CC(N)(C3)C2 [Memantine]
NR1/NR2A receptors; compound 12 μM
  effect on NR1/NR2A currents: completely blocks

## [Mg+2] [Mg^2+]
NR1/NR3B receptors; comparison with NR2 subunit-containing receptors
  sensitivity of NR1/NR3B receptors to channel blocker compared to NR1/NR2A (NR2-containing) receptors: drastically less sensitive; also recorded: much less potently
NR1/NR3B receptors; compound 0.5 mM, 10 μM glycine, holding potential −60 mV
  effect on glycine-induced NR1/NR3B current: had no effect
NR1/NR3B receptors; [1]
  effect on glycine-evoked NR1/NR3B currents: weakly inhibits
NR1/NR2A receptors; compound 0.1 mM
  effect on NR1/NR2A currents: inhibition
NR1/NR3A receptors
  effect on glycine-evoked NR1/NR3A currents: no inhibitory effect
NR1/NR3A receptors; higher glycine levels
  effect on glycine-evoked NR1/NR3A currents: potentiates peak currents without affecting the steady state current
NR1/NR3A receptors; low glycine levels
  effect on glycine-evoked NR1/NR3A currents: not only failed to block glycine-evoked currents of NR1/NR3A receptors, but actually potentiated these currents; also recorded: actually potentiates

## CN[C@H](CC(=O)O)C(=O)O [NMDA, N-methyl-D-aspartate]
NR1/NR3B receptors
  NR1/NR3B current evoked by compound applied alone: little or no effect
  effect on glycine-evoked NR1/NR3B currents: little or no effect; also recorded: does not potentiate

## N[C@@H](CCC(=O)O)C(=O)O [glutamate]
NR1/NR3B receptors
  effect on NR1/NR3B currents evoked by glycine: have little effect or only slightly potentiate the current
